Assay results taken from the Kinase Knowledgebase extract (Sharma et al. 2016).

target: MAPK14 (human) (UniProt Q16539); experiment: Inhibition of MAPK14 Kinase Activity
Sequence (Q16539 whole entry, looked up): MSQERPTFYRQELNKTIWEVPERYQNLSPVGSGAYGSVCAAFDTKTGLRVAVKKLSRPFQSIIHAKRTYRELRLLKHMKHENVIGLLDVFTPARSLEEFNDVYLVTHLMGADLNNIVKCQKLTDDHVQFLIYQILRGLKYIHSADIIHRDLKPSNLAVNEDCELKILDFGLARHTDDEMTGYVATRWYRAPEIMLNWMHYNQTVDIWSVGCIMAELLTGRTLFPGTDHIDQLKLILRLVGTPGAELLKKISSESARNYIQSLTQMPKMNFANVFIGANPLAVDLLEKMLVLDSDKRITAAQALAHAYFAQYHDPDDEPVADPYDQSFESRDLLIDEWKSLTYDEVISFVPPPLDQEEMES

IC50, ≤ 1000 nM:
Cc1ccc(-n2c(=O)ccc3c(Nc4cccc(C)c4)c(C#N)sc32)cc1, CCOC(=O)c1sc2c(ccc(=O)n2-c2cccc(C)c2)c1Nc1ccc(F)c(C)c1, Cc1cc(Nc2c(C#N)sc3c2ccc(=O)n3-c2ccccc2Cl)ccc1F, N#Cc1ccccc1Nc1c(C(N)=O)sc2c1ccc(=O)n2-c1ccc2[nH]ccc2c1, CCOC(=O)c1sc2c(ccc(=O)n2-c2ccccc2)c1Nc1cccc(OC(F)(F)F)c1, O=C(c1sc2c(ccc(=O)n2-c2ccccc2)c1Nc1ccccc1)N1CCCC1, CCOC(=O)c1sc2c(ccc(=O)n2-c2ccc(CN3CCCC3)cc2)c1Nc1ccccc1, C=Cc1ccc(-n2c(=O)ccc3c(Nc4ccccc4)c(C(=O)OCC)sc32)cc1, NC(=O)c1sc2c(ccc(=O)n2-c2ccccc2)c1Nc1ccc(F)c(Cl)c1, CON(C)C(=O)c1sc2c(ccc(=O)n2CC2CC2)c1Nc1ccccc1, CSc1cccc(Nc2c(C#N)sc3c2ccc(=O)n3-c2ccccc2)c1, NC(=O)c1sc2c(ccc(=O)n2-c2ccccc2)c1Nc1cccc(O)c1, CN(C)c1ccc(-n2c(=O)ccc3c(Nc4ccccc4)c(C(=O)NCCCn4ccnc4)sc32)cc1, CCOC(=O)c1sc2c(ccc(=O)n2-c2ccccc2)c1Nc1ccc(Cl)cc1, Cc1cc(Nc2c(C(N)=O)sc3c2ccc(=O)n3-c2ccc(F)cc2)ccc1F, Cc1ccc(Nc2c(C#N)sc3c2ccc(=O)n3CC2CC2)cc1C, CCOC(=O)c1sc2c(ccc(=O)n2-c2ccc(F)cc2)c1Nc1ccc(F)c(C)c1, N#Cc1sc2c(ccc(=O)n2-c2ccccc2)c1Nc1cccc(SC(F)(F)F)c1, CCOC(=O)c1sc2c(ccc(=O)n2CC2CC2)c1Nc1cccc(C)c1C#N, O=C(c1sc2c(ccc(=O)n2-c2ccccc2)c1Nc1ccccc1)N1CCCCC1, CCOC(=O)c1sc2c(ccc(=O)n2-c2ccc(SC)cc2)c1Nc1cccc(C)c1, CCOC(=O)c1sc2c(ccc(=O)n2-c2ccc(S(C)(=O)=O)cc2)c1Nc1cccc(C)c1, CCc1cccc(Nc2c(C(N)=O)sc3c2ccc(=O)n3-c2ccccc2)c1, CON(C)C(=O)c1sc2c(ccc(=O)n2-c2ccc(N(C)C)cc2)c1Nc1ccccc1, NC(=O)c1sc2c(ccc(=O)n2-c2ccccc2)c1Nc1cc(Cl)cc(Cl)c1, CCN(CC)CCN(C)C(=O)c1sc2c(ccc(=O)n2-c2ccccc2)c1Nc1ccccc1, CCOC(=O)c1sc2c(ccc(=O)n2CC2CC2)c1Nc1cccc(Br)c1, Cc1c(Br)cccc1Nc1c(C#N)sc2c1ccc(=O)n2-c1ccccc1, Cc1cccc(Nc2c(C(N)=O)sc3c2ccc(=O)n3CC2CC2)c1C#N, N#Cc1sc2c(ccc(=O)n2-c2ccccc2)c1Nc1ccccc1OC(F)F, CC(=O)c1ccc(-n2c(=O)ccc3c(Nc4cccc(Cl)c4)c(C#N)sc32)cc1, O=C(O)c1sc2c(ccc(=O)n2-c2ccc3[nH]ccc3c2)c1Nc1ccccc1, CCOC(=O)c1sc2c(ccc(=O)n2-c2ccccc2)c1Nc1cccc(C)c1C#N, NC(=O)c1sc2c(ccc(=O)n2-c2ccccc2)c1Nc1ccccc1OC(F)F, Cc1cccc(Nc2c(C#N)sc3c2ccc(=O)n3-c2ccc(F)cc2)c1, Cc1cccc(Nc2c(C(N)=O)sc3c2ccc(=O)n3C2CC2)c1, Cc1ccc(Nc2c(C(N)=O)sc3c2ccc(=O)n3CC2CC2)cc1C, NC(=O)c1sc2c(ccc(=O)n2-c2ccccc2)c1Nc1ccccc1O, Cc1cc(Nc2c(C(N)=O)sc3c2ccc(=O)n3-c2ccsc2)ccc1F, O=C(c1sc2c(ccc(=O)n2-c2ccccc2)c1Nc1ccc(F)cc1)N1CCCC1, N#Cc1sc2c(ccc(=O)n2-c2ccccc2)c1Nc1cccc(Br)c1, N#Cc1sc2c(ccc(=O)n2-c2ccccc2)c1Nc1c(F)cccc1F, NC(=O)c1sc2c(ccc(=O)n2-c2ccc(C(O)CO)cc2)c1Nc1ccccc1 (configuration not stated), Cc1ccc(Nc2c(C(N)=O)sc3c2ccc(=O)n3-c2ccccc2)cc1Br, Cc1cccc(Nc2c(C(N)=O)sc3c2ccc(=O)n3-c2ccc(F)cc2)c1C#N, NC(=O)c1sc2c(ccc(=O)n2-c2cccnc2)c1Nc1ccccc1, Cc1cccc(Nc2c(C#N)sc3c2ccc(=O)n3-c2ccccc2)n1, Cc1cc(F)ccc1Nc1c(C#N)sc2c1ccc(=O)n2-c1ccccc1, Cc1ccccc1-n1c(=O)ccc2c(Nc3ccc(F)cc3F)c(C#N)sc21, NS(=O)(=O)c1sc2c(ccc(=O)n2-c2ccccc2)c1Nc1ccc(F)cc1F, O=C(NC1CCNC1)c1sc2c(ccc(=O)n2-c2ccccc2)c1Nc1ccc(F)cc1F (configuration not stated), COC(=O)NNC(=O)c1sc2c(ccc(=O)n2-c2ccccc2)c1Nc1ccc(F)cc1F, NC(=O)c1sc2c(ccc(=O)n2-c2ccccc2)c1Nc1ccc(F)cc1F, Cc1cc(Nc2c(C#N)sc3c2ccc(=O)n3-c2ccccc2)ccc1F, N#Cc1sc2c(ccc(=O)n2CC2CC2)c1Nc1ccccc1, N#Cc1ccccc1Nc1c(C(N)=O)sc2c1ccc(=O)n2-c1ccsc1, Cc1ccc(-n2c(=O)ccc3c(Nc4cccc(C)c4)c(C(N)=O)sc32)cc1, Cc1ccc(Nc2c(C(N)=O)sc3c2ccc(=O)n3CC2CC2)c(C)c1, Cc1cc(=O)n(-c2ccccc2)c2sc(C(N)=O)c(Nc3ccccc3)c12, COc1ccc(-n2c(=O)ccc3c(Nc4ccc(F)cc4F)c(C#N)sc32)cc1, NC(=O)c1sc2c(ccc(=O)n2-c2ccccc2)c1Nc1ccccc1OC(F)(F)F, CC(C)(CO)NC(=O)c1sc2c(ccc(=O)n2-c2ccccc2)c1Nc1ccccc1, CCOC(=O)c1sc2c(ccc(=O)n2-c2ccc3[nH]ccc3c2)c1Nc1ccccc1C#N, Cc1cc(Nc2c(C(N)=O)sc3c2ccc(=O)n3-c2ccccc2C)ccc1F, CCOC(=O)c1sc2c(ccc(=O)n2-c2ccccc2)c1Nc1ccc(C#N)c(Cl)c1, CN(C)CCN(C)C(=O)c1sc2c(ccc(=O)n2-c2ccccc2)c1Nc1ccccc1, Cc1cc(Nc2c(C(N)=O)sc3c2ccc(=O)n3-c2ccccc2)ccc1F, N#Cc1sc2c(ccc(=O)n2-c2ccccc2)c1Nc1ccccc1OC(F)(F)F, Cc1cccc(Nc2c(C(N)=S)sc3c2ccc(=O)n3-c2ccccc2)c1, CN(C)c1ccc(-n2c(=O)ccc3c(Nc4ccccc4)c(C(=O)N4CCCC4)sc32)cc1, N#Cc1ccccc1Nc1c(C(N)=O)sc2c1ccc(=O)n2-c1ccc(F)cc1, CCOC(=O)c1sc2c(ccc(=O)n2-c2ccc(SC)cc2)c1Nc1ccccc1, C=Cc1ccc(-n2c(=O)ccc3c(Nc4ccc(F)cc4F)c(C(=O)OCC)sc32)cc1, O=C(O)c1sc2c(ccc(=O)n2-c2ccccc2)c1Nc1ccccc1, CCNC(=O)c1sc2c(ccc(=O)n2-c2ccccc2)c1Nc1ccccc1, CN(C)C(=O)c1sc2c(ccc(=O)n2-c2ccccc2)c1Nc1ccccc1, CCOC(=O)c1sc2c(ccc(=O)n2-c2ccc(Cl)cc2)c1Nc1ccc(F)c(C)c1, N#Cc1cccc(Nc2c(C(=O)N3CCCC3)sc3c2ccc(=O)n3-c2ccccc2)c1, O=c1ccc2c(Nc3ccccc3)csc2n1-c1ccccc1, N#Cc1sc2c(ccc(=O)n2-c2ccccc2)c1Nc1cccc(Cl)n1, Cc1ccc(Nc2c(C#N)sc3c2ccc(=O)n3CC2CC2)c(C)c1, O=C(NCCN1CCOCC1)c1sc2c(ccc(=O)n2-c2ccccc2)c1Nc1ccccc1, CCOC(=O)c1sc2c(ccc(=O)n2-c2ccccc2)c1N(C)c1ccccc1, CCOC(=O)c1sc2c(ccc(=O)n2-c2ccccc2)c1Nc1ccc(OC)c(F)c1, CCOC(=O)c1sc2c(ccc(=O)n2-c2ccc([S+](C)[O-])cc2)c1Nc1ccccc1C#N (configuration not stated), NC(=O)c1sc2c(ccc(=O)n2-c2ccccc2)c1Nc1ccccc1, CCOC(=O)c1sc2c(ccc(=O)n2-c2ccccc2)c1Nc1ccc(F)c(Cl)c1, Cc1cccc(Nc2c(C#N)sc3c2ccc(=O)n3C2CC2)c1, O=C(NCCCN1CCOCC1)c1sc2c(ccc(=O)n2-c2ccccc2)c1Nc1ccccc1, Cc1ccc(Nc2c(C#N)sc3c2ccc(=O)n3-c2ccccc2)cc1Br, NC(=O)c1sc2c(ccc(=O)n2CC2CC2)c1Nc1cccc(Br)c1, CCOC(=O)c1sc2c(ccc(=O)n2-c2ccccc2)c1Nc1cccc(C)c1
